From PMC9604066 (International Journal of Molecular Sciences, 2022)
≈ marks a conversion by molar mass, not a printed value.

Assays:
[1] = test system: 17D vaccine strain of YFV; settings: cited from earlier work
[2] = test system: YFV strain 17D (Stamaril) on Huh-7 cells; test: microbe, parasite or virus in culture; format: cell-based, yellow fever virus; settings: for EC50: Yellow fever virus, Huh-7
in vitro = settings: human
yellow fever = settings: rhesus monkey, in vivo; cited from earlier work

SMILES	logP (physchem)	EC50 [2] [µM]	also measured
C[C@@]1(O)[C@H](O)[C@@H](CO)O[C@H]1n1ccc(N)nc1=O [2-C-methylcytidine]	–	–	EC90 [1]: 0.32 µg/mL (≈ 1.24 µM); SI [1]: 141
CN1CC(=O)N(c2ccccc2)C1c1cc2cc(Cc3ccc4oc(C5N(C)CC(=O)N5c5ccccc5)cc4c3)ccc2o1 (stereo not drawn) [2a, (2″R,2‴R)-, (2″S,2‴S)-, and meso-(2″R,2‴S)-5,5′-Methylenebis[2-(N-methyl-3″-phenyl-4″-oxo-1″,3″-imidazolidin-2″-yl)benzofuran]]	4.75	> 133	–
Cc1ccc(N2C(=O)CN(C)C2c2cc3cc(Cc4ccc5oc(C6N(C)CC(=O)N6c6ccc(C)cc6)cc5c4)ccc3o2)cc1 (stereo not drawn) [2b, (2″R,2‴R)-, (2″S,2‴S)-, and meso-(2″R,2‴S)-5,5′-Methylenebis(2-[N-methyl-3″-(4-methylphenyl)-4″-oxo-1″,3″-imidazolidin-2″-yl]benzofuran)]	–	> 160	–
Cc1cccc(N2C(=O)CN(C)C2c2cc3cc(Cc4ccc5oc(C6N(C)CC(=O)N6c6cccc(C)c6C)cc5c4)ccc3o2)c1C (stereo not drawn) [2c, (2″R,2‴R)-, (2″S,2‴S)-, and meso-(2″R,2‴S)-5,5′-Methylenebis(2-[N-methyl-3″-(2,3-dimethylphenyl)-4″-oxo-1″,3″-imidazolidin-2″-yl]benzofuran)]	3.77	6.75	CC50 (in vitro): 41 µM
Cc1ccc(C)c(N2C(=O)CN(C)C2c2cc3cc(Cc4ccc5oc(C6N(C)CC(=O)N6c6cc(C)ccc6C)cc5c4)ccc3o2)c1 (stereo not drawn) [2d, (2″R,2‴R)-, (2″S,2‴S)-, and meso-(2″R,2‴S)-5,5′-Methylenebis(2-[N-methyl-3″-(2,5-dimethylphenyl)-4″-oxo-1″,3″-imidazolidin-2″-yl]benzofuran)]	4.38	7.7	CC50 (in vitro): 18.5 µM; SI [2]: 2.40
Cc1cc(C)cc(N2C(=O)CN(C)C2c2cc3cc(Cc4ccc5oc(C6N(C)CC(=O)N6c6cc(C)cc(C)c6)cc5c4)ccc3o2)c1 (stereo not drawn) [2e, (2″R,2‴R)-, (2″S,2‴S)-, and meso-(2″R,2‴S)-5,5′-Methylenebis[2-(N-methyl-3″-(3,5-dimethylphenyl)-4″-oxo-1″,3″-imidazolidin-2″-yl)benzofuran]]	4.15	3.54	CC50 (in vitro): 54.1 µM
COc1ccc(N2C(=O)CN(C)C2c2cc3cc(Cc4ccc5oc(C6N(C)CC(=O)N6c6ccc(OC)cc6)cc5c4)ccc3o2)cc1 (stereo not drawn) [2g, (2″R,2‴R)-, (2″S,2‴S)-, and meso-(2″R,2‴S)-5,5′-Methylenebis(2-[N-methyl-3″-(4-methoxyphenyl)-4″-oxo-1″,3″-imidazolidin-2″-yl]benzofuran)]	4.25	> 152	–
CN1CC(=O)N(c2ccc(F)cc2)C1c1cc2cc(Cc3ccc4oc(C5N(C)CC(=O)N5c5ccc(F)cc5)cc4c3)ccc2o1 (stereo not drawn) [2h, (2″R,2‴R)-, (2″S,2‴S)-, and meso-(2″R,2‴S)-5,5′-Methylenebi(2-[N-methyl-3″-(4-fluorophenyl)-4″-oxo-1″,3″-imidazolidin-2″-yl]benzofuran)]	4.6	23.5	CC50 (in vitro): 38.5 µM; SI [2]: 1.63
CN1CC(=O)N(c2ccc(Cl)cc2)C1c1cc2cc(Cc3ccc4oc(C5N(C)CC(=O)N5c5ccc(Cl)cc5)cc4c3)ccc2o1 (stereo not drawn) [2i, (2″R,2‴R)-, (2″S,2‴S)-, and meso-(2″R,2‴S)-5,5′-Methylenebis(2-[N-methyl-3″-(4-chlorophenyl)-4″-oxo-1″,3″-imidazolidin-2″-yl]benzofuran)]	–	14.4	CC50 (in vitro): 12.3 µM; SI [2]: 0.85
CN1CC(=O)N(c2ccc(Br)cc2)C1c1cc2cc(Cc3ccc4oc(C5N(C)CC(=O)N5c5ccc(Br)cc5)cc4c3)ccc2o1 (stereo not drawn) [2j, (2″R,2‴R)-, (2″S,2‴S)-, and meso-(2″R,2‴S)-5,5′-Methylenebis(2-[N-methyl-3″-(4-bromophenyl)-4″-oxo-1″,3″-imidazolidin-2″-yl]benzofuran)]	–	> 133	–
CN1CC(=O)N(c2cccc(C(F)(F)F)c2)C1c1cc2cc(Cc3ccc4oc(C5N(C)CC(=O)N5c5cccc(C(F)(F)F)c5)cc4c3)ccc2o1 (stereo not drawn) [2k, (2″R,2‴R)-, (2″S,2‴S)-, and meso-(2″R,2‴S)-5,5′-Methylenebis(2-[N-methyl-3″-(3-trifluoromethyl)phenyl-4″-oxo-1″,3″-imidazolidin-2″-yl]benzofuran)]	5.16	8.89	CC50 (in vitro): 75 µM
c1ccc(Cn2c(-c3cc4cc(Cc5ccc6oc(-c7nc8ccccc8n7Cc7ccccc7)cc6c5)ccc4o3)nc3ccccc32)cc1 [3a, 5,5′-Methylenebis[2-(1-benzylbenzimidazol-2-yl)benzofuran]]	–	> 114	–
Cc1ccc(Cn2c(-c3cc4cc(Cc5ccc6oc(-c7nc8ccccc8n7Cc7ccc(C)cc7)cc6c5)ccc4o3)nc3ccccc32)cc1 [3b, 5,5′-Methylenebis(2-[1-(p-methylbenzyl)benzimidazol-2-yl]benzofuran)]	–	> 145	–
COc1cccc(Cn2c(-c3cc4cc(Cc5ccc6oc(-c7nc8ccccc8n7Cc7cccc(OC)c7)cc6c5)ccc4o3)nc3ccccc32)c1 [3c, 5,5′-Methylenebis(2-[1-(m-methoxybenzyl)benzimidazol-2-yl]benzofuran)]	–	> 139	–
COc1ccc(Cn2c(-c3cc4cc(Cc5ccc6oc(-c7nc8ccccc8n7Cc7ccc(OC)cc7)cc6c5)ccc4o3)nc3ccccc32)cc1 [3d, 5,5′-Methylenebis(2-[1-(p-methoxybenzyl)benzimidazol-2-yl]benzofuran)]	–	27.7	–
Fc1ccccc1Cn1c(-c2cc3cc(Cc4ccc5oc(-c6nc7ccccc7n6Cc6ccccc6F)cc5c4)ccc3o2)nc2ccccc21 [3e, 5,5′-Methylenebis(2-[1-(o-fluorobenzyl)benzimidazol-2-yl]benzofuran)]	4.65	> 21.5	–
Fc1ccc(Cn2c(-c3cc4cc(Cc5ccc6oc(-c7nc8ccccc8n7Cc7ccc(F)cc7)cc6c5)ccc4o3)nc3ccccc32)cc1 [3f, 5,5′-Methylenebis(2-[1-(p-fluorobenzyl)benzimidazol-2-yl]benzofuran)]	–	28.7	–
Clc1ccccc1Cn1c(-c2cc3cc(Cc4ccc5oc(-c6nc7ccccc7n6Cc6ccccc6Cl)cc5c4)ccc3o2)nc2ccccc21 [3g, 5,5′-Methylenebis(2-[1-(o-chlorobenzyl)benzimidazol-2-yl]benzofuran)]	–	> 137	–
Clc1ccc(Cn2c(-c3cc4cc(Cc5ccc6oc(-c7nc8ccccc8n7Cc7ccc(Cl)cc7)cc6c5)ccc4o3)nc3ccccc32)cc1 [3h, 5,5′-Methylenebis(2-[1-(p-chlorobenzyl)benzimidazol-2-yl]benzofuran)]	–	> 103	–
Brc1cccc(Cn2c(-c3cc4cc(Cc5ccc6oc(-c7nc8ccccc8n7Cc7cccc(Br)c7)cc6c5)ccc4o3)nc3ccccc32)c1 [3i, 5,5′-Methylenebis(2-[1-(m-bromobenzyl)benzimidazol-2-yl]benzofuran)]	–	91.6	–
CC(C)n1c(-c2cc3cc(Cc4ccc5oc(-c6nc7ccccc7n6C(C)C)cc5c4)ccc3o2)nc2ccccc21 [3j, 5,5′-Methylenebis[2-(1-isopropylbenzimidazol-2-yl)benzofuran]]	3.71	6.14	CC50 (in vitro): 69.3 µM
c1ccc2c(c1)nc(-c1cc3cc(Cc4ccc5oc(-c6nc7ccccc7n6C6CCCC6)cc5c4)ccc3o1)n2C1CCCC1 [3k, 5,5′-Methylenebis[2-(1-cyclopentylbenzimidazol-2-yl)benzofuran]]	–	> 162	–
c1ccc2c(c1)nc(-c1cc3cc(Cc4ccc5oc(-c6nc7ccccc7n6C6CCCCC6)cc5c4)ccc3o1)n2C1CCCCC1 [3l, 5,5′-Methylenebis[2-(1-cyclohexylbenzimidazol-2-yl)benzofuran]]	–	> 28.7	–
NC(=O)c1ncn([C@@H]2O[C@H](CO)[C@@H](O)[C@H]2O)n1 [Ribavirin]	–	–	survival (yellow fever): lack of improved survival
O=Cc1cc2cc(Cc3ccc4oc(C=O)cc4c3)ccc2o1 [compound 7]	3.75	> 329	activity towards YFV [2]: did not exhibit any activity
CCOC(=O)c1cc2cc(Cc3ccc4oc(C(=O)OCC)cc4c3)ccc2o1 [compound 10]	–	> 255	activity towards YFV [2]: did not exhibit any activity
O=C(O)c1cc2cc(Cc3ccc4oc(C(=O)O)cc4c3)ccc2o1 [compound 11]	–	> 297	activity towards YFV [2]: did not exhibit any activity
